Measured values published in ChEMBL document CHEMBL1152847, “Molecular modeling and inhibition of phospholipase A2 by polyhydroxy phenolic compounds” (Eur J Med Chem, 2009).
The source made the active and inactive calls. The rule behind the calls is not given here.

Columns and labels:
[1] = Inhibition of Crotalus adamanteus venom PLA2 assessed as effect on 1-hexadecanoyl-2-(1-pyrenedecanoyl)-sn-glycero-3-phosphoglycerol hydrolysis at 0.30 uM
Crotalus adamanteus [2] = test: Activity of Crotalus adamanteus venom PLA2 assessed as 1-hexadecanoyl-2-(1-pyrenedecanoyl)-sn-glycero-3-phosphoglycerol hydrolysis at 0.15 uM
Crotalus adamanteus [3] = test: Inhibition of Crotalus adamanteus venom PLA2-induced edema in Swiss mouse at 50 ug, id; format: functional, organism-based
[4] = Inhibition of Crotalus adamanteus venom PLA2 assessed as effect on 1-hexadecanoyl-2-(1-pyrenedecanoyl)-sn-glycero-3-phosphoglycerol hydrolysis at 0.15 uM
Crotalus adamanteus [5] = test: Activity of Crotalus adamanteus venom PLA2 assessed as 1-hexadecanoyl-2-(1-pyrenedecanoyl)-sn-glycero-3-phosphoglycerol hydrolysis at 0.30 uM

Row | SMILES | Ki [1] [nM] | Km (Crotalus adamanteus [2]) [mM] | Vmax (Crotalus adamanteus [2]) [nmol/min] | Activity (Crotalus adamanteus [3]) | Ki [4] [nM] | Km (Crotalus adamanteus [5]) [mM] | Vmax (Crotalus adamanteus [5]) [nmol/min]
1 | CC(=O)c1c(O)cc(O)cc1O [2,4,6-TRIHYDROXYACETOPHENONE] | 8.74 | 15.1 | 18 | Active | 8.9 | 28.2 | 18.3
2 | CC(=O)c1c(O)cccc1O | 31.2 | 4.25 | 18.2 | – | 30.1 | 7.78 | 18
3 | CC(=O)c1ccc(O)cc1O | 32.1 | 4.03 | 18.1 | – | 33.3 | 7.57 | 18.2
4 | Oc1cc(O)cc(O)c1 [PHLOROGLUCINOL] | 8.86 | 12.1 | 18.1 | Active | 8.77 | 23.2 | 18
5 | Oc1cccc(O)c1 [RESORCINOL] | 8.72 | 12.6 | 18.1 | Active | 8.83 | 24.8 | 18
